Data as given in patent US7115594B2, “Use of 2-methylene-19-nor-20(S)-1α,25-dihydroxyvitamin D3 to increase bone strength” (Wisconsin Alumni Research Foundation, priority 2000, dated 2006).
“Also recorded” adds a separate entry of the source.

Key:
[1] = tested on: ovariectomized old female rats; test: Strength of femurs and vertebrae to mechanical stress (animals of Table 1); format: in vivo; details: for Stress Value Femur / Stress Value Vertebra: ovariectomized rats
[2] = tested on: ovariectomized old female rats; test: Treatment of ovariectomized old female rats (bone mass, serum calcium, femur ash); details: for BMC / BMC/Body Wt. / BMD / Femur Ash / Femur Ash (%) / Body Wt. / Serum CA: ovariectomized rats, mean ± SEM
[3] = tested on: intestinal calcium transport; test: Intestinal calcium transport activity; format: in vivo; details: FIG. 2
From the text: FIG. 2 is a graph illustrating the intestinal calcium transport activity of 2-methylene-19-nor-20(S)-1α,25-dihydroxyvitamin D3 as compared to 1α,25-dihydroxyvitamin D3;
The in vivo tests of increasing serum calcium of rats on a zero calcium diet provides an insight to […] or bone activity of 2MD.

[4] = target: T1, porcine intestinal vitamin D receptor (Sus scrofa, UniProt A3RGC1); test: Competitive binding of [3H]-1,25-(OH)2-D3 to the porcine intestinal vitamin D receptor; details: FIG. 1, standard 1,25-(OH)2D3
T1 construct: from tissue; host or cells: pig intestine (nuclear receptor preparation)
T1 sequence (A3RGC1 1-427): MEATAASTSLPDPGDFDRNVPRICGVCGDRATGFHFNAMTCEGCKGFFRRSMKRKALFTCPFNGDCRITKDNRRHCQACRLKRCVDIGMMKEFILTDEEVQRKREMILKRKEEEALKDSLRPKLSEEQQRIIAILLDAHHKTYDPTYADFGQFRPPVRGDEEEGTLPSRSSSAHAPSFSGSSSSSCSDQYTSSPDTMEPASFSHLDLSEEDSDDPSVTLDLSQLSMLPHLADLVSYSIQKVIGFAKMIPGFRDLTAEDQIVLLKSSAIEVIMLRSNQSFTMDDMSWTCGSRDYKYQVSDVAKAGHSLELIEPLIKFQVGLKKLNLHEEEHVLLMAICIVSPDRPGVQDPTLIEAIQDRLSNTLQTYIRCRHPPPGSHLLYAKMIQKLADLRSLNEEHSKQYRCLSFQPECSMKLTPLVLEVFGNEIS
Protocol: FIG. 1 is a graph illustrating the relative activity of 2-methylene-19-nor-20(S)-1α,25-dihydroxyvitamin D3, 2-methylene-19-nor-1α,25-dihydroxyvitamin D3 and 1α,25-dihydroxyvitamin D3 to compete for binding of [^3H]-1,25-(OH)2-D3 to the vitamin D pig intestinal nuclear receptor;
Competitive binding of the analogs to the porcine intestinal receptor was carried out by the method described by Dame et al (Biochemistry 25, 4523–4534, 1986).

[5] = tested on: Rhesus monkeys; test: Single oral dose in Rhesus monkeys, serum calcium; format: in vivo; details: single oral dose of 27 μg; 10 Kg Rhesus monkey; preliminary
From the text: FIGS. 7 and 8 snow a six week toxicity study in rats showing that 2MD appears safe at up to 30 pmol/day.
These and other tests indicate that primates will tolerate 2MD extremely well which may give a very large window between efficacy and the danger of hypercalcemia in man.

Compound: C=C1/C(=C\C=C2/CCC[C@]3(C)[C@@H]([C@H](C)CCCC(C)(C)O)CC[C@@H]23)C[C@@H](O)C[C@@H]1O [1,25(OH)2D3, 1α,25-dihydroxyvitamin D3]
- Stress Value Femur ([1]; 250 pmol/day/5X/Week): 118.21 ± 19.85
- Stress Value Vertebra ([1]; 250 pmol/day/5X/Week): 19.24 ± 5.66
- Stress Value Femur ([1]; 500 pmol/d/3-5X/Week): 116.47 ± 16.20
- Stress Value Vertebra ([1]; 500 pmol/d/3-5X/Week): 17.14 ± 0.52
- BMC ([2]; 250 pmol/d 5X/Week, 8 weeks): 8.90 ± 0.40 g
- BMC/Body Wt. ([2]; 250 pmol/d 5X/Week, 8 weeks): 22.4 ± 0.48 mg/g
- BMD ([2]; 250 pmol/d 5X/Week, 8 weeks): 0.297 ± 0.001 g/cm^2
- BMC ([2]; 250 pmol/d 5X/Week, 17 weeks): 9.6 ± 0.39 g
- BMC/Body Wt. ([2]; 250 pmol/d 5X/Week, 17 weeks): 24.5 ± 0.87 mg/g
- BMD ([2]; 250 pmol/d 5X/Week, 17 weeks): 0.308 ± 0.008 g/cm^2
- BMC ([2]; 250 pmol/d 5X/Week, 30 weeks): 10.1 ± 0.30 g
- BMC/Body Wt. ([2]; 250 pmol/d 5X/Week, 30 weeks): 26.1 ± 0.97 mg/g
- BMD ([2]; 250 pmol/d 5X/Week, 30 weeks): 0.310 ± 0.007 g/cm^2
- Femur Ash ([2]; 250 pmol/d 5X/Week, 30 weeks): 417 ± 23 mg
- Femur Ash (%) ([2]; 250 pmol/d 5X/Week, 30 weeks): 60.8 ± 1.1%
- BMC ([2]; 500 pmol/d 3X/Week, 17 weeks): 11.5 ± 0.25 g
- BMC/Body Wt. ([2]; 500 pmol/d 3X/Week, 17 weeks): 27.6 ± 0.68 mg/g
- BMD ([2]; 500 pmol/d 3X/Week, 17 weeks): 0.331 ± 0.008 g/cm^2
- BMC ([2]; 500 pmol/d 3X/Week, 30 weeks): 11.8 ± 0.23 g
- BMC/Body Wt. ([2]; 500 pmol/d 3X/Week, 30 weeks): 28.0 ± 0.69 mg/g
- BMD ([2]; 500 pmol/d 3X/Week, 30 weeks): 0.328 ± 0.008 g/cm^2
- Femur Ash ([2]; 500 pmol/d 3X/Week, 30 weeks): 478 ± 7.5 mg
- Femur Ash (%) ([2]; 500 pmol/d 3X/Week, 30 weeks): 61.4 ± 1.3%
- BMC ([2]; 500 pmol/d 5X/Week, 8 weeks): 10.2 ± 0.40 g
- BMC/Body Wt. ([2]; 500 pmol/d 5X/Week, 8 weeks): 26.3 ± 0.57 mg/g
- BMD ([2]; 500 pmol/d 5X/Week, 8 weeks): 0.312 ± 0.005 g/cm^2

Compound: C=C1[C@H](O)CC(=C/C=C2\CCC[C@]3(C)[C@@H]([C@@H](C)CCCC(C)(C)O)CC[C@@H]23)C[C@H]1O [2MD, 2-methylene-19-nor-20(S)-1α,25-dihydroxyvitamin D3]
- breaking strength in the femurs (cortical strength) ([1]; animals shown in Table 1): increases breaking strength in the femurs
- crushing strength in the vertebra (trabecular strength) ([1]; animals shown in Table 1): increases
- Stress Value Femur ([1]; 32 pmol/d/2X/Week): 134.84 ± 14.12
- Stress Value Vertebra ([1]; 32 pmol/d/2X/Week): 23.93 ± 6.59
- Stress Value Femur ([1]; 65 pmol/d/1X/Week): 133.71 ± 14.06
- Stress Value Vertebra ([1]; 65 pmol/d/1X/Week): 17.07 ± 5.73
- activity in stimulating intestinal calcium transport compared to 1,25(OH)2D3 [3]: activity similar to that of 1,25-dihydroxyvitamin D3; also recorded: approximately equal that of 1,25-(OH)2D3
- binding to the vitamin D receptor compared to 1,25-(OH)2D3 [4]: about as active as 1,25(OH)2D3
- binding to the vitamin D receptor compared to 1,25-(OH)2D3 ([4]; listed as 2-methylene-20(S)-19-nor-1,25-(OH)2D3): bound equally well
- elevation of serum calcium concentration [5]: does not cause significant elevation of serum calcium concentration; also recorded: without appreciably elevating serum calcium concentration
- restoring bone of ovariectomized, old female rats ([2]; 32 pmol given 2 times per week, compared to 1,25(OH)2D3 at high doses 3 times per week): very effective in restoring bone
- building bone mass in ovariectomized rats ([2]; compared to the native hormone / sham-operated controls, FIGS. 4 and 6): extraordinarily effective in building bone mass; also recorded: causes an increase in bone mass above that of sham-operated controls
- serum calcium concentration in ovariectomized rats ([2]; dosage levels used in the bone mass study): without increasing serum calcium concentration; also recorded: no change in serum calcium
- % ash in the femur ([2]; ovariectomized old female rats): increases % ash in the femur; also recorded: percent ash is unexpectedly increased further
- BMC ([2]; 32 pmol/d 2X/Week, 8 weeks): 8.4 ± 0.13 g
- BMC/Body Wt. ([2]; 32 pmol/d 2X/Week, 8 weeks): 22.4 ± 0.64 mg/g
- BMD ([2]; 32 pmol/d 2X/Week, 8 weeks): 0.295 ± 0.009 g/cm^2
- Body Wt. ([2]; 32 pmol/d 2X/Week, 8 weeks): 375 ± 8.2 g
- BMC ([2]; 32 pmol/d 2X/Week, 17 weeks): 9.7 ± 0.19 g
- BMC/Body Wt. ([2]; 32 pmol/d 2X/Week, 17 weeks): 26.2 ± 0.92 mg/g
- BMD ([2]; 32 pmol/d 2X/Week, 17 weeks): 0.313 ± 0.011 g/cm^2
- Body Wt. ([2]; 32 pmol/d 2X/Week, 17 weeks): 373 ± 11.0 g
- BMC ([2]; 32 pmol/d 2X/Week, 30 weeks): 11.6 ± 0.40 g
- BMC/Body Wt. ([2]; 32 pmol/d 2X/Week, 30 weeks): 33.4 ± 1.60 mg/g
- BMD ([2]; 32 pmol/d 2X/Week, 30 weeks): 0.331 ± 0.006 g/cm^2
- Body Wt. ([2]; 32 pmol/d 2X/Week, 30 weeks): 346 ± 11.0 g
- Femur Ash ([2]; 32 pmol/d 2X/Week, 30 weeks): 462 ± 21.4 mg
- Femur Ash (%) ([2]; 32 pmol/d 2X/Week, 30 weeks): 65.6 ± 1.7%
- Serum CA ([2]; 32 pmol/d 2X/Week, 30 weeks): 10.8 ± 0.22 mg/dL
- BMC ([2]; 65 pmol/d 1X/Week, 8 weeks): 8.5 ± 0.23 g
- BMC/Body Wt. ([2]; 65 pmol/d 1X/Week, 8 weeks): 22.2 ± 0.53 mg/g
- BMD ([2]; 65 pmol/d 1X/Week, 8 weeks): 0.293 ± 0.004 g/cm^2
- Body Wt. ([2]; 65 pmol/d 1X/Week, 8 weeks): 408 ± 10.5 g
- BMC ([2]; 65 pmol/d 1X/Week, 17 weeks): 9.6 ± 0.24 g
- BMC/Body Wt. ([2]; 65 pmol/d 1X/Week, 17 weeks): 24.0 ± 0.80 mg/g
- BMD ([2]; 65 pmol/d 1X/Week, 17 weeks): 0.312 ± 0.005 g/cm^2
- Body Wt. ([2]; 65 pmol/d 1X/Week, 17 weeks): 402 ± 11.3 g
- BMC ([2]; 65 pmol/d 1X/Week, 30 weeks): 10.2 ± 0.33 g
- BMC/Body Wt. ([2]; 65 pmol/d 1X/Week, 30 weeks): 26.0 ± 1.10 mg/g
- BMD ([2]; 65 pmol/d 1X/Week, 30 weeks): 0.310 ± 0.009 g/cm^2
- Body Wt. ([2]; 65 pmol/d 1X/Week, 30 weeks): 393 ± 15.0 g
- Femur Ash ([2]; 65 pmol/d 1X/Week, 30 weeks): 443 ± 11.6 mg
- Femur Ash (%) ([2]; 65 pmol/d 1X/Week, 30 weeks): 62.5 ± 0.57%
- Serum CA ([2]; 65 pmol/d 1X/Week, 30 weeks): 10.7 ± 0.46 mg/dL
